Measured values from the NIST ThermoML archive (doi:10.1021/je100522z).
Where “and” joins values, the source holds several entries; their conditions need not be identical. Equal entries are not always repeated. Numbers after ± are expanded uncertainties.

Legend:
[1] = 101.33 kPa, Liquid
[2] = molar heat capacity at constant pressure; details: 101.33 kPa, Liquid, Small sample (50 mg) DSC
[3] = excess molar enthalpy (molar enthalpy of mixing); xn = mol fraction of the nth substance listed; details: 101.3 kPa, Liquid, Calvet calorimetry

CCn1cc[n+](C)c1.N#C[S-] [1-ethyl-3-methylimidazolium thiocyanate]
Details | mass density, [1] [kg/m3] | molar heat capacity at constant pressure, [2] [J/K/mol]
283.15 K | – | 285 ± 23
293.15 K | 1119.02 ± 0.88 | 287 ± 23
298.15 K | 1115.96 ± 0.86 | –
303.15 K | 1112.91 ± 0.85 | 288 ± 23
313.15 K | 1106.85 ± 0.83 | 290 ± 24
323.15 K | 1100.85 ± 0.81 | 293 ± 24
333.15 K | 1094.91 ± 0.79 | 296 ± 24
343.15 K | 1089.06 ± 0.77 | 300 ± 24

CCn1cc[n+](C)c1.N#C[S-] [1-ethyl-3-methylimidazolium thiocyanate] + O
[3]
Details | excess molar enthalpy [kJ/mol]
313.14 K, x2 = 0.1503 | -0.247 ± 0.01
313.14 K, x2 = 0.2483 | -0.362 ± 0.015
313.14 K, x2 = 0.2501 | -0.363 ± 0.015
313.14 K, x2 = 0.498 | -0.423 ± 0.017
313.14 K, x2 = 0.4996 | -0.422 ± 0.017
313.14 K, x2 = 0.7488 | -0.109 ± 0.005
313.14 K, x2 = 0.7493 | -0.108 ± 0.005
313.14 K, x2 = 0.8994 | 0.181 ± 0.008
313.14 K, x2 = 0.8996 | 0.18 ± 0.007
333.14 K, x2 = 0.1477 | -0.257 ± 0.011
333.14 K, x2 = 0.1479 | -0.255 ± 0.011
333.14 K, x2 = 0.25 | -0.371 ± 0.015
333.14 K, x2 = 0.2506 | -0.372 ± 0.015
333.14 K, x2 = 0.5014 | -0.393 ± 0.016
333.14 K, x2 = 0.5016 | -0.394 ± 0.016
333.14 K, x2 = 0.6521 | -0.202 ± 0.008
333.14 K, x2 = 0.6524 | -0.202 ± 0.008
333.14 K, x2 = 0.8965 | 0.259 ± 0.011
333.14 K, x2 = 0.898 | 0.26 ± 0.011
348.13 K, x2 = 0.1467 | -0.263 ± 0.011
348.13 K, x2 = 0.1516 | -0.273 ± 0.011
348.13 K, x2 = 0.2472 | -0.37 ± 0.015
348.13 K, x2 = 0.251 | -0.367 ± 0.015
348.13 K, x2 = 0.499 | -0.364 ± 0.015
348.13 K, x2 = 0.4992 | -0.363 ± 0.015
348.13 K, x2 = 0.6015 | -0.231 ± 0.01
348.13 K, x2 = 0.6029 | -0.228 ± 0.009
348.13 K, x2 = 0.8992 | 0.343 ± 0.014
348.13 K, x2 = 0.8993 | 0.343 ± 0.014

CCCCCCn1cc[n+](C)c1.O=S(=O)([O-])C(F)(F)F [1-hexyl-3-methylimidazolium trifluoromethanesulfonate]
[2]
Details | molar heat capacity at constant pressure [J/K/mol]
283.15 K | 484 ± 39
293.15 K | 493 ± 40
303.15 K | 500 ± 41
313.15 K | 506 ± 41
323.15 K | 513 ± 42
333.15 K | 516 ± 42
343.15 K | 522 ± 42

CCCCCCn1cc[n+](C)c1.O=S(=O)([O-])C(F)(F)F [1-hexyl-3-methylimidazolium trifluoromethanesulfonate] + O
[3]
Details | excess molar enthalpy
313.12 K, x2 = 0.3964 | 1.36 ± 0.055 kJ/mol
313.12 K, x2 = 0.3978 | 1.36 ± 0.055 kJ/mol
313.12 K, x2 = 0.6294 | 1.62 ± 0.066 kJ/mol
313.12 K, x2 = 0.6334 | 1.62 ± 0.066 kJ/mol
313.12 K, x2 = 0.8633 | 0.726 kJ/mol and 0.72 kJ/mol
333.12 K, x2 = 0.3946 | 1.48 ± 0.06 kJ/mol
333.12 K, x2 = 0.3993 | 1.5 ± 0.061 kJ/mol
333.12 K, x2 = 0.6304 | 1.88 ± 0.076 kJ/mol
333.12 K, x2 = 0.8633 | 1 ± 0.041 kJ/mol
348.13 K, x2 = 0.3956 | 1.58 ± 0.064 kJ/mol
348.13 K, x2 = 0.3977 | 1.6 ± 0.065 kJ/mol
348.13 K, x2 = 0.6302 | 2.11 ± 0.086 kJ/mol
348.13 K, x2 = 0.635 | 2.11 ± 0.086 kJ/mol
348.13 K, x2 = 0.8633 | 1.21 ± 0.049 kJ/mol

CCCC[P+](CC)(CCCC)CCCC.CCOP(=O)([O-])OCC [tributylethylphosphonium diethylphosphate]
Details | mass density, [1] [kg/m3] | molar heat capacity at constant pressure, [2] [J/K/mol]
283.15 K | – | 683 ± 55
293.15 K | 1010.74 ± 0.48 | 706 ± 57
298.15 K | 1007.43 ± 0.47 | –
303.15 K | 1004.1 ± 0.5 | 716 ± 58
313.15 K | 997.42 ± 0.45 | 728 ± 59
323.15 K | 990.87 ± 0.47 | 739 ± 60
333.15 K | 984.33 ± 0.49 | 753 ± 61
343.15 K | 977.79 ± 0.51 | 768 ± 62

CCCC[P+](CC)(CCCC)CCCC.CCOP(=O)([O-])OCC [tributylethylphosphonium diethylphosphate] + O
[3]
Details | excess molar enthalpy [kJ/mol]
313.11 K, x2 = 0.2619 | -1.32 ± 0.054
313.11 K, x2 = 0.2622 | -1.33 ± 0.054
313.11 K, x2 = 0.5134 | -2.59 ± 0.1
313.11 K, x2 = 0.5174 | -2.61 ± 0.11
313.11 K, x2 = 0.762 | -2.91 ± 0.12
313.11 K, x2 = 0.7628 | -2.91 ± 0.12
333.11 K, x2 = 0.2606 | -1.19 ± 0.048
333.11 K, x2 = 0.2633 | -1.21 ± 0.049
333.11 K, x2 = 0.5116 | -2.31 ± 0.094
333.11 K, x2 = 0.5118 | -2.32 ± 0.094
333.11 K, x2 = 0.7594 | -2.59 ± 0.1
333.11 K, x2 = 0.7601 | -2.6 ± 0.11
348.11 K, x2 = 0.2623 | -1.13 ± 0.046
348.11 K, x2 = 0.2642 | -1.14 ± 0.046
348.11 K, x2 = 0.5185 | -2.14 ± 0.087
348.11 K, x2 = 0.5213 | -2.15 ± 0.087
348.11 K, x2 = 0.7613 | -2.32 ± 0.094
348.11 K, x2 = 0.7635 | -2.32 ± 0.094
